Data on 3 compounds can be found in patent US20230255972A1, “PYRIMIDINE COMPOUND-CONTAINING COMBINATION TO BE USED IN TUMOR TREATMENT” (TAIHO PHARMACEUTICAL CO., LTD., priority 2020, published 2023).

Data set [1] relates to MCF10A_EGFR/H773_V774insNPH cells. Briefly: Growth inhibitory activity against MCF10A_EGFR/H773_V774insNPH. The following applies: Homo sapiens, 72 h; 3 days; read-out: Cell growth inhibitory activity GI 50 value, MCF10A_EGFR/H773_V774insNPH cell. Format: cell-based. As for the experimental part:
(§1) Test Example 7 Measurement of Growth Inhibitory Activity Against EGFR Overexpressing Cell Line and Exon 20 Insertion Mutant EGFR Expressing Cell Line
(§2) Growth inhibitory activity against an EGFR overexpressing cell line and an exon 20 insertion mutant EGFR expressing cell line was evaluated using MDA-MB-468 cells (ATCC) as an EGFR overexpressing human breast cancer cell line; NCI-H1975 cells (ATCC) as L858R and T790M mutant EGFR-positive human lung cancer cells; and MCF10A_EGFR cells, MCF10A_EGFR/V769_D770insASV cells, MCF10A_EGFR/D770_N771insSVD cells, and MCF10A_EGFR/H773_V774insNPH cells (Fukushima Medical University) which were cells obtained by introducing the EGFR gene (WT, […], D770_N771insSVD mutant, H773_V774insNPH mutant) into MCF10A cells as human normal mammary gland cells.
(§3) The MDA-MB-468 cells were suspended in Leibovitz's L-15 medium containing 10% inactivated fetal bovine serum. The NCI-H1975 cells were suspended in RPMI-1640 medium containing 10% inactivated fetal bovine serum. The MCF10A_EGFR cells, the MCF10A_EGFR/V769_D770insASV cells, the MCF10A_EGFR/D770_N771insSVD cells, or the MCF10A_EGFR/H773_V774insNPH cells were suspended in DMEM/Ham's F-12 medium (containing L-glutamine, phenol red, HEPES, and sodium pyruvate) containing 10 μg/mL insulin, 500 ng/mL hydrocortisone, 5 μmol/L forskolin, and 5% inactivated horse serum in terms of their final concentrations. Each cell suspension was seeded in each well of a 96-well flat-bottom plate such that the number of cells per well was 500, and was then cultured in a carbon dioxide gas-free culture vessel for the MDA-MB-468 cells and in a 5% carbon dioxide gas-containing culture vessel for the other cells at 37° C. for 1 day. The pyrimidine compound of the present invention was prepared at 1 mM in DMSO and then diluted 1/200 with a medium to prepare a 5 μM solution. […]
(§4) The cells at the start of the culture (day 0) and after the culture (day 3) were counted using CellTiter-Glo(R) 2.0 Reagent (Promega Corp.) according to the protocol recommended by the manufacturer. […]

A further data set has as its system LXF 2478 cells. The experiment in a line: Growth inhibitory activity against LXF 2478 (V769_D770insASV mutant EGFR-positive). The following applies: Homo sapiens, LXF 2478, 72 h; 3 days; read-out: Cell growth inhibitory activity GI 50 value, LXF 2478 cell. It counts as cell-based.
The subject of data set [2] is MCF10A_EGFR/D770_N771insSVD cells. Briefly: Growth inhibitory activity against MCF10A_EGFR/D770_N771insSVD. It counts as cell-based. Particulars: Homo sapiens, 72 h; 3 days; read-out: Cell growth inhibitory activity GI 50 value, MCF10A_EGFR/D770_N771insSVD cell. Here is the method:
as §1, §2, §3, §4

In data set [3] the test system is H1975-EGFRinsSVD cell line. The experiment in a line: Antitumor effect (in vivo) on subcutaneous transplantation models of H1975-EGFRinsSVD. Also noted: species or system nude mouse. The following applies: Days 1-14. Here is the method: Test Example 12 Antitumor Effect Confirmation Test (In Vivo) on Subcutaneous Transplantation Models, into which H1975-EGFRinsSVD Cell Line is Transplanted
The test compound used was the compounds of Examples 2, 11, and 12, and a 0.5% HPMC aqueous solution was used as a control. The compounds of Examples 2, 11 and 12 were orally administered at doses of 25 mg/kg/day, 25 mg/kg/day and 50 mg/kg/day, respectively.
To compare the transition of tumor growth over time by the administration of each test compound, a tumor volume (which is also referred to as “TV” below) was measured at a frequency of twice a week over time. […] A body weight change percentage is also referred to as “BWC” below.
BWCn (%)=((body weight on n^th day)−(body weight on grouping day)]/[(body weight on grouping day)×100

A further data set has as its system H1975-EGFRinsSVD cells. The experiment in a line: Growth inhibitory activity against exon 20 insertion mutant EGFR expressing cell line H1975-EGFRinsSVD. It counts as cell-based. The following applies: Homo sapiens, 72 h; 3 days; read-out: Cell growth inhibitory activity GI 50 value, H1975-EGFRinsSVD cell.

Regarding `C=CC(=O)N1C[C@H](n2c(C#CC)c(C(=O)N[C@H](C)c3ccccc3)c3c(N)ncnc32)C[C@@H]1C` [Example 2, 7-((3R,5S)-1-acryloyl-5-methylpyrrolidin-3-yl)-4-amino-N—((R)-1-phenylethyl)-6-(prop-1-yn-1-yl)-7H-pyrrolo[2,3-d]pyrimidine-5-carboxamide], the GI50 in data set [1] is 16 nM; in the data set with LXF 2478 cells, 11 nM; in data set [2] it was 8.2 nM; with H1975-EGFRinsSVD cells, 9.5 nM. In addition, the “body weight reduction of 20% or more” value in data set [3] (25 mg/kg/day po) is “not observed”.
In the same order, the values of `C=CC(=O)N1C[C@H](n2c(C#CC3CC3)c(C(=O)N[C@H](C)c3ccccc3)c3c(N)ncnc32)C[C@@H]1C` [Example 11, 7-((3R,5S)-1-acryloyl-5-methylpyrrolidin-3-yl)-4-amino-6-(cyclopropylethynyl)-N—((R)-1-phenylethyl)-7H-pyrrolo[2,3-d]pyrimidine-5-carboxamide] are 18 nM, 19 nM, 10 nM, 17 nM and “not observed”.
For the compound `C=CC(=O)N1C[C@H](n2c(C#CC(C)(C)C)c(C(=O)N[C@H](C)c3ccccc3)c3c(N)ncnc32)C[C@@H]1C` [Example 12, 7-((3R,5S)-1-acryloyl-5-methylpyrrolidin-3-yl)-4-amino-6-(3,3-dimethylbut-1-yn-1-yl)-N—((R)-1-phenylethyl)-7H-pyrrolo[2,3-d]pyrimidine-5-carboxamide], the GI50 amounted to 50 nM in data set [1], 48 nM in the data set on LXF 2478 cells, 27 nM in data set [2] and 52 nM in the data set with H1975-EGFRinsSVD cells. Further, the “body weight reduction of 20% or more” value in data set [3] (50 mg/kg/day po) was “not observed”.
